The values below come from patent US11208421B2, “2-carboxypenam compound or salt thereof, pharmaceutical composition containing novel 2-carboxypenam compound or salt thereof, and applications thereof” (priority 2017, dated 2021).

Holding throughout (format): cell-based
Test [1] has as its system Pseudomonas aeruginosa strain ATCC 27853. Briefly: Antibacterial activity evaluation test (MIC), broth microdilution, strain ATCC 27853. To be noted: for MIC Pseudomonas aeruginosa strain ATCC 27853: cation-adjusted Mueller-Hinton medium supplemented with 20 M of apotransferrin, 35° C., 16 to 20 hours; for MIC: Pseudomonas aeruginosa, ATCC27853, read-out: MIC Pseudomonas aeruginosa strain ATCC 27853. Here is the method:
(§1) The minimum inhibitory concentration (MIC) was measured according to the Clinical and Laboratory Standards Institute (CLSI) standard method by using the following broth microdilution method.
(§2) As bacteria, a Pseudomonas aeruginosa strain ATCC 27853, a Pseudomonas aeruginosa AmpC derepression mutant strain S-3028, and a Pseudomonas aeruginosa IMP-1-producing strain S-2838 were used.
(§3) The Pseudomonas aeruginosa AmpC-derepression mutant strain S-3028 or the Pseudomonas aeruginosa IMP-1-producing strain S-2838 was cultured on a Mueller Hinton agar medium overnight, thereby preparing test bacterial cells. The obtained test bacterial cells were scraped off, suspended to yield 0.5 McFarland equivalence, and diluted 10-fold to obtain an inoculum. A cation-adjusted Mueller Hinton medium containing a test compound was inoculated with 0.0005 mL of the inoculum, and the cells were cultured at 35° C. for 16 to 20 hours. The minimum drug concentration at which the growth of bacteria was not visually observed was defined as MIC.
The MIC of the Pseudomonas aeruginosa ATCC strain 27853 was measured in the same manner as described above by using a cation-adjusted Mueller-Hinton medium supplemented with […] of apotransferrin as a final concentration.

In test [2] the test system is Pseudomonas aeruginosa IMP-1-producing strain S-2838. Briefly: Antibacterial activity evaluation test (MIC), broth microdilution, IMP-1-producing strain S-2838. To be noted: for MIC Pseudomonas aeruginosa strain S-2838: IMP-1-producing strain, cation-adjusted Mueller Hinton medium, 35° C., 16 to 20 hours; for MIC: Pseudomonas aeruginosa, read-out: MIC Pseudomonas aeruginosa strain S-2838. The procedure:
as §1, §2, §3

In test [3] the test system is Pseudomonas aeruginosa AmpC derepression mutant strain S-3028. Briefly: Antibacterial activity evaluation test (MIC), broth microdilution, AmpC derepression mutant strain S-3028. Conditions: for MIC Pseudomonas aeruginosa strain S-3028: AmpC derepression mutant, cation-adjusted Mueller Hinton medium, 35° C., 16 to 20 hours; for MIC: Pseudomonas aeruginosa, read-out: MIC Pseudomonas aeruginosa strain S-3028. Here is the method: as §1, §2, §3

Converted amounts (≈) assume the structure as drawn.

In the case of `CC(C)(O/N=C(\C(=O)N[C@@H]1C(=O)N2C[C@](SCCNC(=O)C(=O)c3cc(O)c(O)cc3Cl)(C(=O)O)S[C@H]12)c1csc(N)n1)C(=O)O` [Example 23, (3R,5R,6R)-6-((Z)-2-(2-aminothiazol-4-yl)-2-(((2-carboxypropan-2-yl)oxy)imino)acetamide)-3-((2-(2-(2-chloro-4,5-dihydroxyphenyl)-2-oxoacetamide)ethyl)thio)-7-oxo-4-thia-1-azabicyclo[3.2.0]heptane-3-carboxylic acid], the “MIC Pseudomonas aeruginosa strain ATCC 27853” value in test [1] was 1 µg/mL (≈ 1.39 µM). In test [2], the “MIC Pseudomonas aeruginosa strain S-2838” value was 4 µg/mL (≈ 5.58 µM). The “MIC Pseudomonas aeruginosa strain S-3028” value in test [3] was 2 µg/mL (≈ 2.79 µM).
For `CN/N=C(\C(=O)NCCS[C@]1(C(=O)O)CN2C(=O)[C@@H](NC(=O)/C(=N\OC(C)(C)C(=O)O)c3csc(N)n3)[C@H]2S1)c1ccc(O)c(O)c1Cl` [Example 8, (3R,5R,6R)-6-((Z)-2-(2-aminothiazol-4-yl)-2-(((2-carboxypropan-2-yl)oxy)imino)acetamide)-3-((2-((Z)-2-(2-chloro-3,4-dihydroxyphenyl)-2-(2-methylhydrazono)acetamide)ethyl)thio)-7-oxo-4-thia-1-azabicyclo[3.2.0]heptane-3-carboxylic acid], the figures for the minimal inhibitory concentration (MIC) in test [1], in test [2] and in test [3] were no more than 0.0625 µg/mL, 0.25 µg/mL (≈ 0.335 µM) and 2 µg/mL (≈ 2.68 µM), respectively.
With `CC(C)(O/N=C(\C(=O)N[C@@H]1C(=O)N2C[C@](SC[C@@H]3COCCN3C(=O)c3ccc(O)c(O)c3Cl)(C(=O)O)S[C@H]12)c1csc(N)n1)C(=O)O` [Example 27, (3R,5R,6R)-6-((Z)-2-(2-aminothiazol-4-yl)-2-(((2-carboxypropan-2-yl)oxy)imino)acetamide)-3-((((S)-4-(2-chloro-3,4-dihydroxybenzoyl)morpholin-3-yl)methyl)thio)-7-oxo-4-thia-1-azabicyclo[3.2.0]heptane-3-carboxylic acid], the “MIC Pseudomonas aeruginosa strain ATCC 27853” value in test [1] came to 1 µg/mL (≈ 1.34 µM). The “MIC Pseudomonas aeruginosa strain S-2838” value in test [2] was found to be 0.5 µg/mL (≈ 0.671 µM). Further, the “MIC Pseudomonas aeruginosa strain S-3028” value in test [3] is 0.5 µg/mL (≈ 0.671 µM).
In the case of `CC(C)(O/N=C(\C(=O)N[C@@H]1C(=O)N2C[C@](SCCNC(=O)C(=O)c3ccc(O)c(O)c3)(C(=O)O)S[C@H]12)c1csc(N)n1)C(=O)O` [Example 7, (3R,5R,6R)-6-((Z)-2-(2-aminothiazol-4-yl)-2-(((2-carboxypropane-2-yl)oxy)imino)acetamide)-3-((2-(2-(3,4-dihydroxyphenyl)-2-oxoacetamide)ethyl)thio)-7-oxo-4-thia-1-azabicyclo[3.2.0]heptane-3-carboxylic acid], in test [1], the “MIC Pseudomonas aeruginosa strain ATCC 27853” value turned out to be 0.125 µg/mL (≈ 0.183 µM). In test [2], the “MIC Pseudomonas aeruginosa strain S-2838” value was 4 µg/mL (≈ 5.86 µM). In addition, the “MIC Pseudomonas aeruginosa strain S-3028” value in test [3] came to 16 µg/mL (≈ 23.4 µM).
With `CC(C)(O/N=C(\C(=O)N[C@@H]1C(=O)N2C[C@](SCCNC(=O)/C(=N\N)c3ccc(O)c(O)c3Cl)(C(=O)O)S[C@H]12)c1csc(N)n1)C(=O)O` [Example 26, (3R,5R,6R)-6-((Z)-2-(2-aminothiazol-4-yl)-2-(((2-carboxypropan-2-yl)oxy)imino)acetamide)-3-((2-((Z)-2-(2-chloro-3,4-dihydroxyphenyl)-2-hydrazinylideneacetamide)ethyl)thio)-7-oxo-4-thia-1-azabicyclo[3.2.0]heptane-3-carboxylic acid], the “MIC Pseudomonas aeruginosa strain ATCC 27853” value in test [1] is 0.5 µg/mL (≈ 0.684 µM). In addition, the “MIC Pseudomonas aeruginosa strain S-2838” value in test [2] turned out to be 1 µg/mL (≈ 1.37 µM). In addition, the “MIC Pseudomonas aeruginosa strain S-3028” value in test [3] is 8 µg/mL (≈ 10.9 µM).
Regarding `CN(CCS[C@]1(C(=O)O)CN2C(=O)[C@@H](NC(=O)/C(=N\OC(C)(C)C(=O)O)c3csc(N)n3)[C@H]2S1)C(=O)c1ccc(O)c(O)c1Cl` [Example 25, (3R,5R,6R)-6-((Z)-2-(2-aminothiazol-4-yl)-2-(((2-carboxypropan-2-yl)oxy)imino)acetamide)-3-((2-(2-chloro-3,4-dihydroxy-N-methylbenzamide)ethyl)thio)-7-oxo-4-thia-1-azabicyclo[3.2.0]heptane-3-carboxylic acid], the minimum inhibitory concentration (MIC) is 1 µg/mL (≈ 1.42 µM) in test [1], 1 µg/mL (≈ 1.42 µM) in test [2] and 2 µg/mL (≈ 2.84 µM) in test [3].
With `CC(C)(O/N=C(\C(=O)N[C@@H]1C(=O)N2C[C@](SCCNC(=O)/C(=N/NC(N)=O)c3ccc(O)c(O)c3Cl)(C(=O)O)S[C@H]12)c1csc(N)n1)C(=O)O` [Example 13, (3R,5R,6R)-6-((Z)-2-(2-aminothiazole-4-yl)-2-(((2-carboxypropan-2-yl)oxy)imino)acetamide)-3-((2-((E)-2-(2-carbamoylhydrazono)-2-(2-chloro-3,4-dihydroxyphenyl)acetamide)ethyl)thio)-7-oxo-4-thia-1-azabicyclo[3.2.0]heptane-3-carboxylic acid], the MIC was no more than 0.0625 µg/mL in test [1], 8 µg/mL (≈ 10.3 µM) in test [2] and 16 µg/mL (≈ 20.7 µM) in test [3].
The like results for `CC(C)(O/N=C(\C(=O)N[C@@H]1C(=O)N2C[C@](SC3CN(C(=O)C(=NNC(N)=O)c4ccc(O)c(O)c4Cl)C3)(C(=O)O)S[C@H]12)c1csc(N)n1)C(=O)O` [Example 11, (3R,5R,6R)-6-((Z)-2-(2-aminothiazol-4-yl)-2-(((2-carboxypropan-2-yl)oxy)imino)acetamide)-3-((1-((Z)-2-(2-carbamoylhydrazono)-2-(2-chloro-3,4-dihydroxyphenyl)acetyl)azetidin-3-yl)thio)-7-oxo-4-thia-1-azabicyclo[3.2.0]heptane-3-carboxylic acid] were, in that order, no more than 0.0625 µg/mL, 2 µg/mL (≈ 2.54 µM) and 1 µg/mL (≈ 1.27 µM).
The like results for `CC(C)(O/N=C(\C(=O)N[C@@H]1C(=O)N2C[C@](SCCNC(=O)/C(=N\NC(N)=O)c3ccc(O)c(O)c3Cl)(C(=O)O)S[C@H]12)c1csc(N)n1)C(=O)O` [Example 12] were, in that order, no more than 0.0625 µg/mL, 4 µg/mL (≈ 5.17 µM) and 16 µg/mL (≈ 20.7 µM).
The like results for `CC(C)(O/N=C(\C(=O)N[C@@H]1C(=O)N2C[C@](SCCNC(=O)c3ccc(O)c(O)c3Cl)(C(=O)O)SC12)c1csc(N)n1)C(=O)O` (stereo partly drawn) [Example 18, (3R,5R,6R)-6-((Z)-2-(2-aminothiazol-4-yl)-2-(((2-carboxypropan-2-yl)oxy)imino)acetamide)-3-((2-(2-chloro-3,4-dihydroxybenzamide)ethyl)thio)-7-oxo-4-thia-1-azabicyclo[3.2.0]heptane-3-carboxylic acid] were, in that order, 0.125 µg/mL (≈ 0.181 µM), 4 µg/mL (≈ 5.8 µM) and 2 µg/mL (≈ 2.9 µM).
On to `COC[C@H](CS[C@]1(C(=O)O)CN2C(=O)[C@@H](NC(=O)/C(=N\OC(C)(C)C(=O)O)c3csc(N)n3)[C@H]2S1)NC(=O)/C(=N\NC(N)=O)c1ccc(O)c(O)c1Cl` [Example 17, (3R,5R,6R)-6-((Z)-2-(2-aminothiazol-4-yl)-2-(((2-carboxypropane-2-yl)oxy)imino)acetamide)-3-(((R)-2-(2-(2-carbamoylhydrazono)-2-(2-chloro-3,4-dihydroxyphenyl)acetamide)-3-methoxypropyl)thio)-7-oxo-4-thia-1-azabicyclo[3.2.0]heptane-3-carboxylic acid], for which the figures for the minimum inhibitory concentration (MIC) in test [1], in test [2] and in test [3] were no more than 0.0625 µg/mL, 8 µg/mL (≈ 9.78 µM) and 8 µg/mL (≈ 9.78 µM), respectively.
Turning to `CC(C)(O/N=C(\C(=O)N[C@@H]1C(=O)N2C[C@](SCCNC(=O)/C(=N/N3CCOCC3)c3ccc(O)c(O)c3Cl)(C(=O)O)S[C@H]12)c1csc(N)n1)C(=O)O` [Example 10, (3R,5R,6R)-6-((Z)-2-(2-aminothiazole-4-yl)-2-(((2-carboxypropan-2-yl)oxy)imino)acetamide)-3-((2-((E)-2-(2-chloro-3,4-dihydroxyphenyl)-2-(morpholinoimino)acetamide)ethyl)thio)-7-oxo-4-thia-1-azabicyclo[3.2.0]heptane-3-carboxylic acid], the MIC was 1 µg/mL (≈ 1.25 µM) in test [1], 32 µg/mL (≈ 39.9 µM) in test [2] and greater than 128 µg/mL in test [3].
